Measurements from patent publication US20250346575A1, “ISOINDOLINONE DERIVATIVE HAVING GLUTARIMIDE MOTHER NUCLEUS, AND USE THEREOF” (KOREA RESEARCH INSTITUTE OF CHEMICAL TECHNOLOGY, priority 2021, published 2025).

system: Cancer cells (KG-1); experiment: Cytotoxicity assay, WST-1, KG-1; format: cell-based; details: Homo sapiens; KG-1 cells, 72 hours, WST-1
Protocol: To evaluate the effect of the compounds of the present disclosure on cancer cells, a cytotoxicity assay was conducted as follows.
Cancer cells (KG-1) were seeded at a concentration of 10,000 cells per well into a 96-well plate. Then, the cells were treated with predetermined concentrations of compounds of the Examples and comparative substances (comparative compounds 1, 2, 3). After 72 hours, the cells were incubated with WST-1 reagent for one hour. Then, absorbance was measured at 450 nm using a spectramax spectrophotometer to assess the degree of cancer cell apoptosis. The IC50 (μM) values were calculated using the measured values with the GraphPad Prism program and the measurements are summarized in Table 1.

O=C1CCC(N2Cc3cc(CNC(=O)c4cccc(-c5ccccc5)c4)ccc3C2=O)C(=O)N1 (centres unmarked) [Compound 30, N-((2-(2,6-Dioxopiperidin-3-yl)-1-oxoisoindolin-5-yl)methyl)-[1,1′-biphenyl]-3-carboxamide] and O=C1CCC(N2Cc3cc(CNC(=O)c4ccccc4)ccc3C2=O)C(=O)N1 (centres unmarked) [Comparative substance, reference compound] fall in the same range of IC50: 10 to 50 µM for the first, 10 to 50 µM for the second.

Compared with O=C1CCC(N2Cc3cc(CNC(=O)c4ccc5cc(Cl)ccc5n4)ccc3C2=O)C(=O)N1 (centres unmarked) [Comparative Compound 3, 6-Chloro-N-((2-(2,6-dioxopiperidin-3-yl)-1-oxoisoindolin-5-yl)methyl)quinoline-2-carboxamide, reference compound], O=C1CCC(N2Cc3cc(CNC(=O)c4nc5ccc(Cl)cc5s4)ccc3C2=O)C(=O)N1 (centres unmarked) [Compound 26, 6-Chloro-N-((2-(2,6-dioxopiperidin-3-yl)-1-oxoisoindolin-5-yl)methyl)benzo[d]thiazole-2-carboxamide] is lower in IC50: 10 to 50 µM for the first, 0.01 to 1 µM for the second.

O=C1CCC(N2Cc3cc(CNC(=O)c4cc(-c5ccc(Cl)cc5)ccn4)ccc3C2=O)C(=O)N1 (centres unmarked) [Compound 18, 4-(4-chlorophenyl)-N-((2-(2,6-dioxopiperidin-3-yl)-1-oxoisoindolin-5-yl)methyl)picolinamide] and O=C1CCC(N2Cc3cc(CNC(=O)c4cc(-c5ccc(Cl)cc5)on4)ccc3C2=O)C(=O)N1 (centres unmarked) [Compound 11, 5-(4-Chlorophenyl)-N-((2-(2,6-dioxopiperidin-3-yl)-1-oxoisoindolin-5-yl)methyl)isoxazole-3-carboxamide] fall in the same range of IC50: 0.0001 to 0.01 µM for the first, 0.0001 to 0.01 µM for the second.

Compared with O=C1CCC(N2Cc3cc(CNC(=O)C4CCN(c5ccccc5)C4=O)ccc3C2=O)C(=O)N1 (centres unmarked) [Compound 55, N-((2-(2,6-Dioxopiperidin-3-yl)-1-oxoisoindolin-5-yl)methyl)-2-oxo-1-phenylpyrrolidine-3-carboxamide], Cn1cc(-c2ccccc2)cc1C(=O)NCc1ccc2c(c1)CN(C1CCC(=O)NC1=O)C2=O (centres unmarked) [Compound 39, N-((2-(2,6-Dioxopiperidin-3-yl)-1-oxoisoindolin-5-yl)methyl)-1-methyl-4-phenyl-1H-pyrrole-2-carboxamide] is lower in IC50: 1 to 10 µM for the first, 0.0001 to 0.01 µM for the second.

O=C1CCC(N2Cc3cc(CNC(=O)c4cn(-c5cccc(Cl)c5)nn4)ccc3C2=O)C(=O)N1 (centres unmarked) [Compound 15, 1-(3-chlorophenyl)-N-((2-(2,6-dioxopiperidin-3-yl)-1-oxoisoindolin-5-yl)methyl)-1H-1,2,3-triazole-4-carboxamide] and O=C1CCC(N2Cc3cc(CNC(=O)c4cc(-c5cccc(Cl)c5)on4)ccc3C2=O)C(=O)N1 (centres unmarked) [Compound 19, 5-(3-Chlorophenyl)-N-((2-(2,6-dioxopiperidin-3-yl)-1-oxoisoindolin-5-yl)methyl)isoxazole-3-carboxamide] fall in the same range of IC50: 0.0001 to 0.01 µM for the first, 0.0001 to 0.01 µM for the second.

O=C1CCC(N2Cc3cc(CNC(=O)c4n[nH]c(-c5cccc(Cl)c5)c4Br)ccc3C2=O)C(=O)N1 (centres unmarked) [Compound 27, 4-Bromo-3-(3-chlorophenyl)-N-((2-(2,6-dioxopiperidin-3-yl)-1-oxoisoindolin-5-yl)methyl)-1H-pyrazole-5-carboxamide] and O=C1CCC(N2Cc3cc(CNC(=O)c4cc(-c5cccc(Cl)c5)n[nH]4)ccc3C2=O)C(=O)N1 (centres unmarked) [Compound 5, 3-(3-Chlorophenyl)-N-((2-(2,6-dioxopiperidin-3-yl)-1-oxoisoindolin-5-yl)methyl)-1H-pyrazole-5-carboxamide] fall in the same range of IC50: 0.0001 to 0.01 µM for the first, 0.0001 to 0.01 µM for the second.

Cc1c(C(=O)NCc2ccc3c(c2)CN(C2CCC(=O)NC2=O)C3=O)nn(Cc2ccc(F)cc2)c1-c1cccc(Cl)c1 (centres unmarked) [Compound 43] and Cc1c(C(=O)NCc2ccc3c(c2)CN(C2CCC(=O)NC2=O)C3=O)nn(Cc2ccccc2)c1-c1cccc(Cl)c1 (centres unmarked) [Compound 21, 1-Benzyl-5-(3-chlorophenyl)-N-((2-(2,6-dioxopiperidin-3-yl)-1-oxoisoindolin-5-yl)methyl)-4-methyl-1H-pyrazole-3-carboxamide] fall in the same range of IC50: 0.0001 to 0.01 µM for the first, 0.0001 to 0.01 µM for the second.

Compared with O=C1CCC(N2Cc3cc(CNC(=O)c4cnc5ccccc5n4)ccc3C2=O)C(=O)N1 (centres unmarked) [Comparative Compound 2, N-((2-(2,6-Dioxopiperidin-3-yl)-1-oxoisoindolin-5-yl)methyl)quinoxaline-2-carboxamide, reference compound], O=C1CCC(N2Cc3cc(CNC(=O)c4cc(-c5ccccc5)c(Cl)cn4)ccc3C2=O)C(=O)N1 (centres unmarked) [Compound 46, 5-Chloro-N-((2-(2,6-dioxopiperidin-3-yl)-1-oxoisoindolin-5-yl)methyl)-4-phenylpicolinamide] is lower in IC50: 10 to 50 µM for the first, 0.0001 to 0.01 µM for the second.

Cc1c(C(=O)NCc2ccc3c(c2)CN(C2CCC(=O)NC2=O)C3=O)n[nH]c1-c1ccccc1 (centres unmarked) [Compound 17, N-((2-(2,6-Dioxopiperidin-3-yl)-1-oxoisoindolin-5-yl)methyl)-4-methyl-5-phenyl-1H-pyrazole-3-carboxamide] and Cn1nc(C(=O)NCc2ccc3c(c2)CN(C2CCC(=O)NC2=O)C3=O)cc1-c1ccccc1 (centres unmarked) [Compound 23, N-((2-(2,6-Dioxopiperidin-3-yl)-1-oxoisoindolin-5-yl)methyl)-1-methyl-5-phenyl-1H-pyrazole-3-carboxamide] fall in the same range of IC50: 0.0001 to 0.01 µM for the first, 0.0001 to 0.01 µM for the second.

Cc1c(C(=O)NCc2ccc3c(c2)CN(C2CCC(=O)NC2=O)C3=O)nn(CC(C)C)c1-c1cccc(Cl)c1 (centres unmarked) [Compound 41, 5-(3-Chlorophenyl)-N-((2-(2,6-dioxopiperidin-3-yl)-1-oxoisoindolin-5-yl)methyl)-1-isobutyl-4-methyl-1H-pyrazole-3-carboxamide] and Cc1c(C(=O)NCc2ccc3c(c2)CN(C2CCC(=O)NC2=O)C3=O)nn(-c2ccccc2)c1-c1cccc(Cl)c1 (centres unmarked) [Compound 42, 5-(3-chlorophenyl)-N-((2-(2,6-dioxopiperidin-3-yl)-1-oxoisoindolin-5-yl)methyl)-4-methyl-1-phenyl-1H-pyrazole-3-carboxamide] fall in the same range of IC50: 0.0001 to 0.01 µM for the first, 0.0001 to 0.01 µM for the second.

O=C1CCC(N2Cc3cc(CNC(=O)c4cc(-c5ccc(Cl)cc5Cl)[nH]n4)ccc3C2=O)C(=O)N1 (centres unmarked) [Compound 25, 5-(2,4-Dichlorophenyl)-N-((2-(2,6-dioxopiperidin-3-yl)-1-oxoisoindolin-5-yl)methyl)-1H-pyrazole-3-carboxamide] and O=C1CCC(N2Cc3cc(CNC(=O)c4cc(-c5cc(Cl)ccc5Cl)[nH]n4)ccc3C2=O)C(=O)N1 (centres unmarked) [Compound 28, 5-(2,5-Dichlorophenyl)-N-((2-(2,6-dioxopiperidin-3-yl)-1-oxoisoindolin-5-yl)methyl)-1H-pyrazole-3-carboxamide] fall in the same range of IC50: 0.0001 to 0.01 µM for the first, 0.0001 to 0.01 µM for the second.

Compared with Cc1ccc(-c2cc(C(=O)NCc3ccc4c(c3)CN(C3CCC(=O)NC3=O)C4=O)n[nH]2)c(C)c1 (centres unmarked) [Compound 29, 5-(2,4-Dimethylphenyl)-N-((2-(2,6-dioxopiperidin-3-yl)-1-oxoisoindolin-5-yl)methyl)-1H-pyrazole-3-carboxamide], Cc1ccnc(C(=O)NCc2ccc3c(c2)CN(C2CCC(=O)NC2=O)C3=O)c1 (centres unmarked) [Compound 31, N-((2-(2,6-Dioxopiperidin-3-yl)-1-oxoisoindolin-5-yl)methyl)-4-methylpicolinamide] is higher in IC50: 0.0001 to 0.01 µM for the first, 10 to 50 µM for the second.

O=C1CCC(N2Cc3cc(CNC(=O)c4c[nH]c5cc(Cl)ccc45)ccc3C2=O)C(=O)N1 (centres unmarked) [Compound 6, 6-chloro-N-((2-(2,6-dioxopiperidin-3-yl)-1-oxoisoindolin-5-yl)methyl)-1H-indole-3-carboxamide] and O=C1CCC(N2Cc3cc(CNC(=O)c4cc5ccc(Cl)cc5[nH]4)ccc3C2=O)C(=O)N1 (centres unmarked) [Compound 9, 6-chloro-N-((2-(2,6-dioxopiperidin-3-yl)-1-oxoisoindolin-5-yl)methyl)-1H-indole-2-carboxamide] fall in the same range of IC50: 0.01 to 1 µM for the first, 0.01 to 1 µM for the second.

First: O=C1CCC(N2Cc3cc(CNC(=O)c4ncc(-c5cccc(Cl)c5)cn4)ccc3C2=O)C(=O)N1 (centres unmarked) [Compound 20, 5-(3-Chlorophenyl)-N-((2-(2,6-dioxopiperidin-3-yl)-1-oxoisoindolin-5-yl)methyl)pyrimidine-2-carboxamide]
Second: O=C1CCC(N2Cc3cc(CNC(=O)c4nc5cc(Cl)ccc5s4)ccc3C2=O)C(=O)N1 (centres unmarked) [Compound 44, 5-chloro-N-((2-(2,6-dioxopiperidin-3-yl)-1-oxoisoindolin-5-yl)methyl)benzo[d]thiazole-2-carboxamide]
The IC50 of the first is lower: 0.0001 to 0.01 µM for the first, 0.01 to 1 µM for the second. The first is the more potent here.

Compared with O=C1CCC(N2Cc3cc(CNC(=O)c4n[nH]c5ccc(Cl)cc45)ccc3C2=O)C(=O)N1 (centres unmarked) [Compound 8, 5-Chloro-N-((2-(2,6-dioxopiperidin-3-yl)-1-oxoisoindolin-5-yl)methyl)-1H-indazole-3-carboxamide], O=C1CCC(N2Cc3cc(CNC(=O)c4cc(-c5ccc(Cl)cc5)n[nH]4)ccc3C2=O)C(=O)N1 (centres unmarked) [Compound 2, 3-(4-Chlorophenyl)-N-((2-(2,6-dioxopiperidin-3-yl)-1-oxoisoindolin-5-yl)methyl)-1H-pyrazole-5-carboxamide] is lower in IC50: 0.01 to 1 µM for the first, 0.0001 to 0.01 µM for the second.

Work on O=C1CCC(N2Cc3cc(CNC(=O)C4(c5ccc(Cl)cc5)CCCC4)ccc3C2=O)C(=O)N1 (centres unmarked) [Compound 53, 1-(4-Chlorophenyl)-N-((2-(2,6-dioxopiperidin-3-yl)-1-oxoisoindolin-5-yl)methyl)cyclopentane-1-carboxamide] yielded an IC50 of 10 to 50 µM.

same assay, conditions: R1 bicyclic heteroaryl compared to monocyclic aryl (comparative substance) or heteroaryl (Compounds 37 and 38)

With O=C1CCC(N2Cc3cc(CNC(=O)c4nc5cc(Cl)ccc5[nH]4)ccc3C2=O)C(=O)N1 (centres unmarked) [Compound 3, 5-Chloro-N-((2-(2,6-dioxopiperidin-3-yl)-1-oxoisoindolin-5-yl)methyl)-1H-benzo[d]imidazole-2-carboxamide] the “cytotoxic activity against KG-1 and NCI-H1155 cancer cells (in words)” value was “more potent cytotoxic activity”.

same assay, conditions: monocyclic heteroaryl R1 and aryl R2 compared to bicyclic heteroaryl R1 (Compounds 8, 9, and 26)

In the case of Cc1c(C(=O)NCc2ccc3c(c2)CN(C2CCC(=O)NC2=O)C3=O)n[nH]c1-c1ccccc1 (centres unmarked) [Compound 17, N-((2-(2,6-Dioxopiperidin-3-yl)-1-oxoisoindolin-5-yl)methyl)-4-methyl-5-phenyl-1H-pyrazole-3-carboxamide], the “activity (in words)” value is reported as “significantly more potent activity”.
In the case of Cn1nc(C(=O)NCc2ccc3c(c2)CN(C2CCC(=O)NC2=O)C3=O)cc1-c1ccccc1 (centres unmarked) [Compound 23, N-((2-(2,6-Dioxopiperidin-3-yl)-1-oxoisoindolin-5-yl)methyl)-1-methyl-5-phenyl-1H-pyrazole-3-carboxamide], the “activity (in words)” value is reported as “significantly more potent activity”.
With Cn1cc(-c2ccccc2)cc1C(=O)NCc1ccc2c(c1)CN(C1CCC(=O)NC1=O)C2=O (centres unmarked) [Compound 39, N-((2-(2,6-Dioxopiperidin-3-yl)-1-oxoisoindolin-5-yl)methyl)-1-methyl-4-phenyl-1H-pyrrole-2-carboxamide] the “activity (in words)” value was “significantly more potent activity”.
